From US8012944B2, “Method for treating cancer using IAP antisense oligomer and chemotherapeutic agent” (Pharmascience Inc., priority 2003, dated 2011)
“Also recorded” adds a separate entry of the source.

How the values were obtained:
H460 cells [1] = assay: H460 cell growth, viability or death (MTT assay); type: cell-based, human; conditions: 1.2 μM
Experimental: Growth inhibition of […] cells was determined by the colorimetric MTT cell viability/proliferation assay. In brief, cells were treated with liposome-oligonucleotide complexes for 4.5 h, then incubated for another 48 h at 37° C. in medium without transfection reagent or oligonucleotides in the presence or absence of anticancer drugs. MTT (25 μg/well) was added to each well, and the plates incubated for 3 h at 37° C. Following the incubation step, the colored formazan product was dissolved by the addition of 200 μl DMSO. Plates were read using the microtiter plate reader (Dynex Technologies Inc., Chantilly, Va.) at a wavelength of 570 nm. The percentage of surviving cells in wells treated with oligonucleotides was normalized to untreated controls. All assays were performed in triplicate.

Bcl-2 and Bax = assay: Bcl-2:Bax ratio in H460 cells (western blot); type: cell-based, human; conditions: 1.2 μM
Experimental: FIGS. 11A and 11B are schematic illustrations showing XIAP oligonucleotide-mediated effects on caspase activation. The effect of XIAP oligonucleotides F3, G4, or C5, or their respective RP and SC ODN controls at 1.2 μM on the expression of pro-caspase-3, PARP (both full length (116 kDa) and processed (85 kDa)) (FIG. 10A) and Bcl-2 and Bax protein levels (FIG. 10B) in transfected H460 cells compared to control is shown. Proteins expression was analyzed by western blotting. Bcl-2 and Bax protein levels were normalized to cellular actin levels and quantified by densitometry. […]
(§1) The cells or tumor tissue samples were lysed with ice-cold lysis buffer (50 mM Tris, 150 mM NaCl, 2.5 mM EDTA, 0.1% SDS, 0.5% sodium deoxycholate, 1% NP-40, 0.02% sodium azide) containing protease inhibitors (Complete-Mini protease inhibitor tablets; Boehringer Mannheim GmBH, Mannheim, Germany). […] Protein content in the lysed extracts was determined using a detergent-compatible Bio-Rad assay (Bio-Rad Labs, Hercules, Calif.). […] Proteins were detected by enhanced chemiluminescence (ECL; Amersham Pharmacia Biotech, Buckinghamshire, England) and visualized after exposure to Kodak autoradiography film. Scanning densitometry (Molecular Dynamics, Sunnyvale, Calif.) was performed to quantify band intensities by volume/area integration. […]

[2] = test system: MDA-MB-435/LCC6 human breast carcinoma xenografts; assay: Systemic (i.p.) PS-oligonucleotides in LCC6 breast carcinoma xenografts; type: in vivo, female SCID-RAG2 mice; conditions: 12.5 mg/kg i.p.; day 35, two weeks after the last treatment
Experimental: Initial systemic PS-oligonucleotide studies were designed without any chemotherapeutic agents. SCID-RAG2 mice were inoculated with H460 human lung carcinoma cells (s.c. shoulder injection of 10^6 cells) and treatments with G4 and F3 AS PS-oligonucleotides, as well as a scrambled control, were initiated three days after tumor inoculation. Nucleobase oligomer injections were administered i.p. at 12.5 mg/kg three times a week for three weeks. At the end of the treatment period, mean tumor sizes in the groups treated with either G4 or F3 AS oligonucleotides were ˜50% smaller than in the group treated with a scrambled control oligonucleotides (FIG. 15). The same treatment protocol was tested on female SCID-RAG2 mice inoculated orthotopically with MDA-MB-435/LCC6 human breast carcinoma cells. Two weeks after the last treatment (day 35) tumor volumes of mice treated with F3, C5 or G4 AS oligonucleotides were 70%, 60%, and 45%, respectively, smaller than vehicle controls (FIG. 16).
Efficacy experiments were conducted in male RAG2 immunodeficient mice bearing NCI-H460 tumours or female RAG2 mice bearing LCC6 tumors. Treatments were commenced on day 3 after tumor inoculation. Saline (controls), G4 AS oligonucleotides (5 or 15 mg/kg), or G4 SC oligonucleotides (5 or 15 mg/kg) were administered i.p. daily for five doses a week over a three week regimen. Vinorelbine (VNB, 5 or 10 mg/kg) was administered i.v. via the tail vein, either alone or in combination with oligonucleotides, at day 3, 7, 11 and 17 after tumor inoculation. When oligonucleotides were administered in combination with VNB, the drug treatment was performed four hours after ODN treatment.

XIAP mRNA = XIAP mRNA knock-down in H460 cells (real-time RT-PCR / TaqMan); type: cell-based, human; conditions: 2 × 2 MBO; NCI-H460 cells, 9 hours post-transfection; relative level (mock control 1.01)
H460 cells [3] = assay: Nuclear morphology (DAPI staining); type: cell-based, human; conditions: 1.2 μM
Experimental: Cells were treated with liposome-oligonucleotde complexes for 4.5 h, and incubated for another 48 h at 37° C. in the medium without transfection reagent or oligonucleotides. Cells were harvested and stained with 0.10 μg/ml DAP1 (4′, 6-diamidino-2-2-phenylindole) for 30 min at room temperature. Cells were placed on a glass slide, cytospun, and viewed with a Leica microscope and 40× objective lens under UV fluorescent illumination. Digital images were captured using Imagedatabase V. 4.01 Software (Leica, Germany).

human XIAP protein = assay: XIAP protein in H460 tumor xenografts (western blot); type: in vivo, mouse xenograft
Experimental: To correlate the tumor growth inhibitory effects of G4 AS oligonucleotides with XIAP protein expression, we examined the changes in XIAP expression at the end of the in vivo treatment with 15 mg/kg of G4 AS and SC oligonucleotides. At day 21 or 24 post-tumor inoculation when tumors reached 1 cm^3 in size (FIG. 17), tumors were harvested and lysates from tumor homogenates were used for western blot analysis. XIAP and β-actin antibodies against the human protein were used, allowing for determination of human XIAP levels obtained from tumor cells specimens without contamination from XIAP derived from mouse cells. […]
as §1

Q: With “GCTGAGTCTCCATATTGCC [G4 AS] (chemistry not given here)” as the sequence, how does the cell death (H460 cells [1]; H460 cells) read?
A: The cell death was 60%.

Q: And the “reduction of H460 cell growth relative to untreated control” value (H460 cells [1]; MTT, 48 hours after transfection)?
A: Its value is 55%.

Q: And the “ratio of Bcl-2:Bax” value (Bcl-2 and Bax)?
A: The value was “unchanged”.

Q: And the “tumor volumes smaller than vehicle controls” value [2]?
A: Its value is 45%.

Q: And the “XIAP RNA” value (XIAP mRNA)?
A: Its value is 0.48.

Q: And the “nuclear morphological changes characteristic of apoptosis” value (H460 cells [3])?
A: Its value is “underwent morphological changes characteristic of apoptosis; also recorded: significant nuclear DNA condensation and fragmentation”.

Q: And the “down-regulation of XIAP protein in tumors vs control tumors” value (human XIAP protein; 15 mg/kg, day 21 or 24, P<0.005)?
A: Its value is “approximately 85%”.

Q: What about the “down-regulation of XIAP protein in tumor xenografts” value (human XIAP protein; systemic administration) of the same sequence?
A: The value was 85%.
